Test results taken from PubChem BioAssay (NCI).
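Results reflect a 48-hour exposure of cells in 96-well plates to compound at five concentrations. The concentration for 50% growth inhibition is given as GI50. TGI is the concentration that stops growth completely.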

Assays:
Assay in all cases: inhibition of tumour cell growth, NCI panel, 48 h
CAKI-1 renal = tested on: CAKI-1 renal
HCC-2998 colon = tested on: HCC-2998 colon
HCT-15 colon = tested on: HCT-15 colon
MDA-MB-435 = tested on: MDA-MB-435
MOLT-4 leukemia = tested on: MOLT-4 leukemia
SF-268 CNS = tested on: SF-268 CNS
SK-OV-3 ovarian = tested on: SK-OV-3 ovarian
SR leukemia = tested on: SR leukemia
TK-10 renal = tested on: TK-10 renal
U251 CNS = tested on: U251 CNS

| SMILES | GI50 (CAKI-1 renal) [µM] | TGI (CAKI-1 renal) [µM] | GI50 (HCC-2998 colon) [µM] | TGI (HCC-2998 colon) [µM] | GI50 (HCT-15 colon) [nM] | TGI (HCT-15 colon) [µM] | GI50 (MDA-MB-435) [nM] | TGI (MDA-MB-435) [µM] | GI50 (MOLT-4 leukemia) [nM] | TGI (MOLT-4 leukemia) [µM] | GI50 (SF-268 CNS) [µM] | TGI (SF-268 CNS) [µM] | GI50 (SK-OV-3 ovarian) [µM] | TGI (SK-OV-3 ovarian) [µM] | GI50 (SR leukemia) [nM] | GI50 (TK-10 renal) [µM] | TGI (TK-10 renal) [µM] | GI50 (U251 CNS) [nM] | TGI (U251 CNS) [µM] | TGI (SR leukemia) [µM] |
| --- | --- | --- | --- | --- | --- | --- | --- | --- | --- | --- | --- | --- | --- | --- | --- | --- | --- | --- | --- | --- |
| COc1ccc(C(=O)COc2cccc(/C=C3\CSc4ccccc4C3=O)c2)cc1 | 4.07 | 12.5 | 1.82 | 3.39 | 2080 | 6.07 | 1980 | 4.62 | 913 | 19.3 | 2.47 | 5.77 | 10.8 | 45.7 | 395 | 2.73 | 9.79 | 1570 | 2.99 |  |
| CC(C)(O)C1CCC(Nc2ccc3ncc(-c4cccc(C(F)(F)F)c4)n3n2)CC1 (centres undefined) | 1.67 | 7.16 | 3.26 | > 100 | 2170 | 11.3 | 2060 | > 100 | 1800 | 7.02 | 3.79 | 18.2 | 2.68 | 9.19 | 1870 | 2.62 | 14.1 | 2360 | 11.9 | 11.1 |
| CCc1ccccc1N1CCN(C(=O)c2cc(OC)c(OC)c(OC)c2)CC1 |  | 43 |  | 2.09 |  | > 23.6 |  | < 0.0113 |  | 41.4 |  | > 100 |  | 4.55 |  |  | > 93.3 |  | 4.14 | > 55.1 |
| COc1cc(C(O)c2nc3ccccc3s2)cc(OC)c1OC (centres undefined) | 4.89 | 93.9 | > 100 | > 100 | > 100000 | > 100 | 20400 | > 100 | 18100 | > 100 | > 100 | > 100 | > 100 | > 100 | 9010 | 47.3 | > 100 | > 100000 | > 100 | > 100 |
| NC(=NC1CCCCCCC1)c1ccc(N2CCN(c3ccc(C(N)=NC4CCCCCCC4)cc3)CC2)cc1 | 23.1 | 63.1 | 14.4 | 48 | 31800 | > 100 | 5250 | 17.9 | 47800 | > 100 | 16.7 | 42.7 | 15.2 | 34.9 | 26600 | 10.9 | 34.2 | 2960 | 15.3 | > 100 |
| COc1ccc(C(=O)/C=C/c2c(C(F)(F)F)nc3sccn23)cc1OC | 2.46 | > 100 | 5.07 | 97.5 | 2540 | > 100 | 1850 | > 100 | 2220 | > 100 | 3.44 | > 100 | 3.41 | > 100 | 493 | 8.76 | > 100 | 1870 | > 100 | > 100 |
